{"source": "ChEMBL document CHEMBL3593172", "about": "“4-(N-Phenyl-N'-substituted benzenesulfonyl)-6-(4-hydroxyphenyl)quinolines as inhibitors of mammalian target of rapamycin” (Bioorg Med Chem, 2015)", "key": {"HL-60 [1]": {"test_system": "HL-60", "assay": "Cytotoxicity against human HL60 cells assessed as growth inhibition at 10 uM after 24 to 48 hrs by MTT assay relative to control", "format": "functional", "settings": "read-out: GI"}, "HL-60 [2]": {"test_system": "HL-60", "assay": "Cytotoxicity against human HL60 cells assessed as growth inhibition at 30 uM after 24 to 48 hrs by MTT assay relative to control", "format": "functional", "settings": "read-out: GI"}, "HL-60 [3]": {"test_system": "HL-60", "assay": "Cytotoxicity against human HL60 cells assessed as growth inhibition at 100 uM after 24 to 48 hrs by MTT assay relative to control", "format": "functional", "settings": "read-out: GI"}, "[4]": {"assay": "Cytotoxicity against human MIAPaCa2 cells assessed as growth inhibition at 10 uM after 24 to 48 hrs by MTT assay relative to control", "format": "functional", "settings": "MIA PaCa-2, read-out: GI"}, "[5]": {"assay": "Cytotoxicity against human MIAPaCa2 cells assessed as growth inhibition at 30 uM after 24 to 48 hrs by MTT assay relative to control", "format": "functional", "settings": "MIA PaCa-2, read-out: GI"}, "[6]": {"assay": "Cytotoxicity against human MIAPaCa2 cells assessed as growth inhibition at 100 uM after 24 to 48 hrs by MTT assay relative to control", "format": "functional", "settings": "MIA PaCa-2, read-out: GI"}, "HCT-116 [7]": {"test_system": "HCT-116", "assay": "Cytotoxicity against human HCT116 cells assessed as growth inhibition at 10 uM after 24 to 48 hrs by MTT assay relative to control", "format": "functional", "settings": "read-out: GI"}, "HCT-116 [8]": {"test_system": "HCT-116", "assay": "Cytotoxicity against human HCT116 cells assessed as growth inhibition at 30 uM after 24 to 48 hrs by MTT assay relative to control", "format": "functional", "settings": "read-out: GI"}, "HCT-116 [9]": {"test_system": "HCT-116", "assay": "Cytotoxicity against human HCT116 cells assessed as growth inhibition at 100 uM after 24 to 48 hrs by MTT assay relative to control", "format": "functional", "settings": "read-out: GI"}, "HepG2 [10]": {"test_system": "HepG2", "assay": "Cytotoxicity against human HepG2 cells assessed as growth inhibition at 10 uM after 24 to 48 hrs by MTT assay relative to control", "format": "functional", "settings": "read-out: GI"}, "HepG2 [11]": {"test_system": "HepG2", "assay": "Cytotoxicity against human HepG2 cells assessed as growth inhibition at 30 uM after 24 to 48 hrs by MTT assay relative to control", "format": "functional", "settings": "read-out: GI"}, "HepG2 [12]": {"test_system": "HepG2", "assay": "Cytotoxicity against human HepG2 cells assessed as growth inhibition at 100 uM after 24 to 48 hrs by MTT assay relative to control", "format": "functional", "settings": "read-out: GI"}, "PC-3 [13]": {"test_system": "PC-3", "assay": "Cytotoxicity against human PC3 cells assessed as growth inhibition at 10 uM after 24 to 48 hrs by MTT assay relative to control", "format": "functional", "settings": "read-out: GI"}, "PC-3 [14]": {"test_system": "PC-3", "assay": "Cytotoxicity against human PC3 cells assessed as growth inhibition at 30 uM after 24 to 48 hrs by MTT assay relative to control", "format": "functional", "settings": "read-out: GI"}, "PC-3 [15]": {"test_system": "PC-3", "assay": "Cytotoxicity against human PC3 cells assessed as growth inhibition at 100 uM after 24 to 48 hrs by MTT assay relative to control", "format": "functional", "settings": "read-out: GI"}, "[16]": {"assay": "Cell cycle arrest in human MIAPaCa2 cells assessed as accumulation at G1 phase at 10 uM after 24 hrs by propidium iodide staining-based flow cytometric analysis (reference value: 51%)", "format": "functional", "settings": "MIA PaCa-2"}, "[17]": {"assay": "Cell cycle arrest in human MIAPaCa2 cells assessed as accumulation at G1 phase at 20 uM after 24 hrs by propidium iodide staining-based flow cytometric analysis (reference value: 51%)", "format": "functional", "settings": "MIA PaCa-2"}, "[18]": {"assay": "Cell cycle arrest in human MIAPaCa2 cells assessed as accumulation at G1 phase at 30 uM after 24 hrs by propidium iodide staining-based flow cytometric analysis (reference value: 51%)", "format": "functional", "settings": "MIA PaCa-2"}, "[19]": {"assay": "Cell cycle arrest in human MIAPaCa2 cells assessed as accumulation at S phase at 10 uM after 24 hrs by propidium iodide staining-based flow cytometric analysis (reference value: […]%)", "format": "functional", "settings": "MIA PaCa-2"}, "[20]": {"assay": "Cell cycle arrest in human MIAPaCa2 cells assessed as accumulation at S phase at 20 uM after 24 hrs by propidium iodide staining-based flow cytometric analysis (reference value: […]%)", "format": "functional", "settings": "MIA PaCa-2"}, "[21]": {"assay": "Cell cycle arrest in human MIAPaCa2 cells assessed as accumulation at S phase at 30 uM after 24 hrs by propidium iodide staining-based flow cytometric analysis (reference value: […]%)", "format": "functional", "settings": "MIA PaCa-2"}, "[22]": {"assay": "Cell cycle arrest in human MIAPaCa2 cells assessed as accumulation at G2 phase at 10 uM after 24 hrs by propidium iodide staining-based flow cytometric analysis (reference value: 5%)", "format": "functional", "settings": "MIA PaCa-2"}, "[23]": {"assay": "Cell cycle arrest in human MIAPaCa2 cells assessed as accumulation at G2 phase at 20 uM after 24 hrs by propidium iodide staining-based flow cytometric analysis (reference value: 5%)", "format": "functional", "settings": "MIA PaCa-2"}, "[24]": {"assay": "Cell cycle arrest in human MIAPaCa2 cells assessed as accumulation at G2 phase at 30 uM after 24 hrs by propidium iodide staining-based flow cytometric analysis (reference value: 5%)", "format": "functional", "settings": "MIA PaCa-2"}, "[25]": {"assay": "Cell cycle arrest in human MIAPaCa2 cells assessed as apoptotic cells at 10 uM after 24 hrs by propidium iodide staining-based flow cytometric analysis (reference value: 0.1%)", "format": "functional", "settings": "MIA PaCa-2"}, "[26]": {"assay": "Cell cycle arrest in human MIAPaCa2 cells assessed as apoptotic cells at 20 uM after 24 hrs by propidium iodide staining-based flow cytometric analysis (reference value: 0.1%)", "format": "functional", "settings": "MIA PaCa-2"}, "[27]": {"assay": "Cell cycle arrest in human MIAPaCa2 cells assessed as apoptotic cells at 30 uM after 24 hrs by propidium iodide staining-based flow cytometric analysis (reference value: 0.1%)", "format": "functional", "settings": "MIA PaCa-2"}, "[28]": {"assay": "Cell cycle arrest in human MIAPaCa2 cells after 24 hrs by propidium iodide staining-based flow cytometric analysis", "format": "functional", "settings": "MIA PaCa-2"}, "[29]": {"assay": "Disruption of mitochondrial membrane potential in human MIAPaCa2 cells at 10 uM after 24 hrs by Rh123 dye-based flow cytometric analysis (reference value: 6%)", "format": "functional, MIA PaCa-2"}, "[30]": {"assay": "Disruption of mitochondrial membrane potential in human MIAPaCa2 cells at 20 uM after 24 hrs by Rh123 dye-based flow cytometric analysis (reference value: 6%)", "format": "functional, MIA PaCa-2"}, "[31]": {"assay": "Disruption of mitochondrial membrane potential in human MIAPaCa2 cells at 30 uM after 24 hrs by Rh123 dye-based flow cytometric analysis (reference value: 6%)", "format": "functional, MIA PaCa-2"}, "MIA PaCa-2 [32]": {"test_system": "MIA PaCa-2", "assay": "Effect on mTORC2 complex in human MIAPaCa2 cells assessed as p-Akt phosphorylation at S473 at 5 to 10 uM measured at 2 hrs by Western blot analysis", "format": "cell-based"}, "MIA PaCa-2 [33]": {"test_system": "MIA PaCa-2", "assay": "Effect on P110alpha expression in human MIAPaCa2 cells at 5 to 10 uM measured after 2 to 4 hrs by Western blot analysis", "format": "functional, cell-based"}, "HL-60 [34]": {"test_system": "HL-60", "assay": "cells", "settings": "Homo sapiens, HL-60, 48 h", "description": "Cytotoxicity against human HL60 cells assessed as inhibition of cell proliferation after 48 hrs by MTT assay"}, "cells": {"assay": "cells", "settings": "Homo sapiens, MIA PaCa-2, 48 h", "description": "Cytotoxicity against human MIAPaCa2 cells assessed as inhibition of cell proliferation after 48 hrs by MTT assay"}, "HCT-116 [35]": {"test_system": "HCT-116", "assay": "cells", "settings": "Homo sapiens, HCT-116, 48 h", "description": "Cytotoxicity against human HCT116 cells assessed as inhibition of cell proliferation after 48 hrs by MTT assay"}, "HepG2 [36]": {"test_system": "HepG2", "assay": "cells", "settings": "Homo sapiens, HepG2, 48 h", "description": "Cytotoxicity against human HepG2 cells assessed as inhibition of cell proliferation after 48 hrs by MTT assay"}, "PC-3 [37]": {"test_system": "PC-3", "assay": "cells", "settings": "Homo sapiens, PC-3, 48 h", "description": "Cytotoxicity against human PC3 cells assessed as inhibition of cell proliferation after 48 hrs by MTT assay"}}, "note": "Activity calls are given as the source filed them. The rule behind the calls is not given here."}
{"smiles": "CC(=O)Nc1ccc(S(=O)(=O)N(c2ccccc2)c2ccnc3ccc(-c4ccc(O)cc4)cc23)cc1", "values": [{"measurement": "inhibition of growth at 10 µM", "setting": "HL-60 [1]", "result": 25, "unit": "%"}, {"measurement": "inhibition of growth at 30 µM", "setting": "HL-60 [2]", "result": 93, "unit": "%"}, {"measurement": "inhibition of growth at 100 µM", "setting": "HL-60 [3]", "result": 94, "unit": "%"}, {"measurement": "inhibition of growth at 10 µM", "setting": "[4]", "result": 64, "unit": "%"}, {"measurement": "inhibition of growth at 30 µM", "setting": "[5]", "result": 89, "unit": "%"}, {"measurement": "inhibition of growth at 100 µM", "setting": "[6]", "result": 89, "unit": "%"}, {"measurement": "inhibition of growth at 10 µM", "setting": "HCT-116 [7]", "result": 19, "unit": "%"}, {"measurement": "inhibition of growth at 30 µM", "setting": "HCT-116 [8]", "result": 25, "unit": "%"}, {"measurement": "inhibition of growth at 100 µM", "setting": "HCT-116 [9]", "result": 29, "unit": "%"}, {"measurement": "inhibition of growth at 10 µM", "setting": "HepG2 [10]", "result": 5, "unit": "%"}, {"measurement": "inhibition of growth at 30 µM", "setting": "HepG2 [11]", "result": 83, "unit": "%"}, {"measurement": "inhibition of growth at 100 µM", "setting": "HepG2 [12]", "result": 87, "unit": "%"}, {"measurement": "inhibition of growth at 10 µM", "setting": "PC-3 [13]", "result": 12, "unit": "%"}, {"measurement": "inhibition of growth at 30 µM", "setting": "PC-3 [14]", "result": 14, "unit": "%"}, {"measurement": "inhibition of growth at 100 µM", "setting": "PC-3 [15]", "result": 25, "unit": "%"}, {"measurement": "Activity", "setting": "[16]", "result": 59, "unit": "%"}, {"measurement": "Activity", "setting": "[17]", "result": 66, "unit": "%"}, {"measurement": "Activity", "setting": "[18]", "result": 67, "unit": "%"}, {"measurement": "Activity", "setting": "[19]", "result": 22, "unit": "%"}, {"measurement": "Activity", "setting": "[20]", "result": 21, "unit": "%"}, {"measurement": "Activity", "setting": "[21]", "result": 19, "unit": "%"}, {"measurement": "Activity", "setting": "[22]", "result": 19, "unit": "%"}, {"measurement": "Activity", "setting": "[23]", "result": 13, "unit": "%"}, {"measurement": "Activity", "setting": "[24]", "result": 15, "unit": "%"}, {"measurement": "Activity", "setting": "[25]", "result": 1, "unit": "%"}, {"measurement": "Activity", "setting": "[26]", "result": 1, "unit": "%"}, {"measurement": "Activity", "setting": "[27]", "result": 6, "unit": "%"}, {"measurement": "Activity", "setting": "[28]", "result": "Dose-dependent effect"}, {"measurement": "Activity", "setting": "[29]", "result": 13, "unit": "%"}, {"measurement": "Activity", "setting": "[30]", "result": 23, "unit": "%"}, {"measurement": "Activity", "setting": "[31]", "result": 42, "unit": "%"}, {"measurement": "Activity", "setting": "MIA PaCa-2 [32]", "result": "inactive"}, {"measurement": "Activity", "setting": "MIA PaCa-2 [33]", "result": "inactive"}, {"measurement": "IC50", "setting": "HL-60 [34]", "result": 16, "unit": "µM"}, {"measurement": "IC50", "setting": "cells", "result": 7, "unit": "µM"}, {"measurement": "IC50", "setting": "HCT-116 [35]", "result": "< 100", "unit": "µM"}, {"measurement": "IC50", "setting": "HepG2 [36]", "result": 22, "unit": "µM"}, {"measurement": "IC50", "setting": "PC-3 [37]", "result": 75, "unit": "µM"}]}
